Consider 35 compounds from a melting point compilation (Tetko et al.; mined from patent text by program, amines drawn as free bases though some values may be those of a salt).

By melting point is commonly meant the temperature, or range, at which the solid turns liquid. For the compound `CCCc1c2oc(C(N)=O)cc(=O)c2cc2c(=O)cc(C(=O)OCC)oc12`, the melting point was in the range of 229 to 231 °C.
To `N#Cc1ccc(OCCC2CCN(c3cc(Cl)nnc3Cl)CC2)cc1` belongs 138 to 139 °C; to `COC(=O)Nc1ccc(C(=O)N(C)C)c(S(N)(=O)=O)c1`, 75 to 77 °C; to `COC(=O)C=C1C=C(C(C)(C)C)C(=O)C(C(C)(C)C)=C1`, 87 to 89 °C.
To `CCN(CC)C(=O)CCC1CCN(Cc2cnc3cc(NC(=O)c4ccc(-c5ccc(F)cc5)cc4)c(C)cc3c2)CC1` belongs 150 to 154 °C; to `Nc1cc(Cl)c([N+](=O)[O-])cc1CCO`, 176 °C.
In the case of `CN(C)c1nc(N)c2ccccc2n1`, the melting point fell in the range of 141 to 142 °C.
The compound `CCC(=O)NCc1cccc2c1C(=O)N(C1CCC(=O)NC1=O)C2=O` (stereo not given) returned a melting point of 219 to 221 °C.
To `O=C1CCN(Cc2ccccc2)CC1C1c2ccccc2C=Cc2ccccc21` (stereo not given) belongs 167 to 169 °C; to `CNc1ccc(C(=O)N(CCN2CCC(C(=O)c3ccc(F)cc3)CC2)c2cccnc2)cc1`, 90 to 96 °C; to `Cc1ccccc1C(=O)c1ccc(Nc2ccccc2NS(=O)(=O)c2ccccc2)cc1Cl`, 211 to 215 °C.
To `CC(=O)NC[C@H]1CN(c2ccc(C3CCN(C(=O)c4cc5ccccc5[nH]4)CC3)c(F)c2)C(=O)O1` belongs 223 to 225 °C; to `COc1ccc(C(=O)Nc2ccc3c(c2)CCC3=O)cc1`, 237 to 238 °C.
To `CCCC(C(=O)N(C)C)n1cc(C)c(-c2ccco2)n1` (stereo not given) belongs 107 to 109 °C; to `COc1cc(OCC(O)CCl)cc2oc3ccccc3c(=O)c12` (stereo not given), 107 °C.
Compound `CCCNC(=O)c1ccc2c(c1)N(C(C)CN(C)CC)c1ccccc1S2` (racemic) gave a melting point of 100 °C.
With `Nc1cc(=O)n(Cc2ccc3ccccc3c2)[nH]1`, the melting point is 156 to 157 °C.
The same measure for `N=c1n[n+]([O-])c2ccccc2n1OC(=O)c1ccccc1`: 177 to 179 °C; for `COc1cc2ncnc(C3C(=O)N(C)c4ccccc43)c2cc1OC` (stereo not given): 233 to 235 °C.
As for `CCc1nc2c(cnn2CC)c(NC2CCOCC2)c1CNC(=O)c1cc(C)cc(C(=O)O)c1`, the melting point lay in the range of 236 to 239 °C.
`NCCc1ccc(Cl)c(Cl)c1CCO` returned a melting point of 79 to 80 °C.
To `CCN1CCCC(NC(=O)c2ccccc2Nc2ccnc3cc(Cl)ccc23)C1` (stereo not given) belongs 187 to 188 °C; to `CC(C)c1ccc(CNc2ccc(S(=O)(=O)O)cc2)cc1`, more than 275 °C; to `COC(=O)c1cc2cc(OC)c(OC)cc2c(-c2ccnc(Cl)c2)n1`, 246 to 247 °C.
The same measure for `CCCc1nn(C)c2c(=O)[nH]c(Cc3ccc(S(=O)(=O)O)cc3)nc12`: more than 350 °C; for `OC1CCN(c2ncc(-c3cccc(Cl)c3)cn2)CC1`: 160 to 162 °C; for `Cc1cc2cc(Cl)ccc2n1Cc1ccccc1`: 75 to 76 °C.
Regarding `CCCCCCCCCC(=O)Nc1cc(NC(=O)CCCCCCCCC)cc(C(=O)O)c1`, the melting point was 208 to 209 °C.
The same measure for `CC(C)(C)OC(=O)NCCCCCCCCNC(=O)OC(C)(C)C`: 96 to 97 °C.
As for `CC(C)(CCCCC(=O)CCCCC1(C(=O)O)CC1)C(=O)O`, the melting point lay within 49 to 52 °C.
`O=C(O)CCC(O)c1ccc(CCNS(=O)(=O)c2ccc(Cl)cc2)cc1` (stereo not given) registered a melting point of 191 °C.
To `CSc1[nH]nc(-c2ccc(Cl)cc2F)c1C` belongs 88 to 90 °C.
The same measure for `O=C(NO)[C@H]1CN(C(=O)NC2CCCCC2)CCN1S(=O)(=O)c1ccc(-c2ccc(F)cc2)s1`: 111 to 123 °C; for `O=C(Nc1ccc(-c2ncon2)cc1)Oc1ccccc1`: 157 to 158 °C.
The same measure for `OC(C1=NCCN1)(c1ccccn1)c1cccs1` (stereo not given): 151 to 152 °C.
